Reference: ChEMBL document CHEMBL1133936, “The synthesis and tubulin binding activity of thiophene-based analogues of combretastatin A-4” (Bioorg Med Chem Lett, 2001)

Key:
MCF7 = assay: Cytotoxicity was determined by inhibition of cell growth of MCF-7 human breast carcinoma cell; type: functional, cell-based
Tubulin alpha chain = Tubulin alpha chain (Sus scrofa, UniProt P02550); assay: Compound was evaluated for inhibition of tubulin polymerization; type: functional
[1] = target: Tubulin alpha chain (Sus scrofa) (UniProt P02550); assay: Inhibition of [3H]colchicine binding to tubulin at a concentration of 5.0 uM
[2] = target: Tubulin alpha chain (Sus scrofa) (UniProt P02550); assay: Inhibition of [3H]colchicine binding to tubulin at a concentration of 50 uM
CA46 = assay: Cytotoxicity was determined by inhibition against the Burkitt lymphoma CA46 cell line; type: functional, cell-based; conditions: Homo sapiens

Chain of Tubulin alpha chain (P02550 whole entry, looked up): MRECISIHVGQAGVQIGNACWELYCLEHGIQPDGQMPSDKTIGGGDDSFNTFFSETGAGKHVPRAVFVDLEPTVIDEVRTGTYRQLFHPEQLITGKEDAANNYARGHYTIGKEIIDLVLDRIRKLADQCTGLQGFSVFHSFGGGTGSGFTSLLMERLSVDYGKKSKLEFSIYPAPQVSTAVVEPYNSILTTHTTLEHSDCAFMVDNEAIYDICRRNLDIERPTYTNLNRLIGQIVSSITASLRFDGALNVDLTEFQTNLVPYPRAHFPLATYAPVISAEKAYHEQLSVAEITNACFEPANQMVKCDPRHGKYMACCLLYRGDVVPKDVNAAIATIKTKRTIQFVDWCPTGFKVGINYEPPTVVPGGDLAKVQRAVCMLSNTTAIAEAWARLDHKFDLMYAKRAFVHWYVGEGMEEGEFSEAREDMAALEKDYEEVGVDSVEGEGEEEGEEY
Chain of Tubulin alpha chain (Sus scrofa) (P02550 whole entry, looked up): as above

| SMILES | IC50 (MCF7) | IC50 (Tubulin alpha chain) | inhibition [1] | inhibition [2] | IC50 (CA46) |
| --- | --- | --- | --- | --- | --- |
| COc1ccc(C(O)c2ccsc2-c2cc(OC)c(OC)c(OC)c2)cc1O (configuration not stated) | 500 nM | 8800 nM | 26% | 74% |  |
| COc1ccc(-c2sccc2C(=O)c2cc(OC)c(OC)c(OC)c2)cc1O | 300 nM | 1000 nM | 67% |  |  |
| COc1ccc(C2=C(c3cc(OC)c(OC)c(OC)c3)CCS2)cc1O | 390 nM | 3600 nM | 64% | 88% |  |
| COc1ccc2c(C(O)c3ccc(OC)c(O)c3)c(-c3cc(OC)c(OC)c(OC)c3)sc2c1 (configuration not stated) |  | 6100 nM | 5% | 73% | > 1000 nM |
| COc1ccc(C(=O)c2ccsc2-c2cc(OC)c(OC)c(OC)c2)cc1O |  | > 40000 nM |  |  |  |
| COc1ccc2c(C(=O)c3cc(OC)c(OC)c(OC)c3)c(-c3ccc(OC)c(O)c3)sc2c1 |  |  | 21% |  |  |
